In assay [1] the test system is PQQ-dependent membrane-bound glycerol dehydrogenase from Gluconobacter industrius IFO 3260. The assay can be described thus: Km determination of comparison glycerol dehydrogenase (membrane-bound). The assay is classed as biochemical. As to conditions: enzyme preparation of Comparison 1, solubilized with dimethyldodecylamine oxide. The method, then:
(§1) Hereunder is explained a method for the determination of the activity of the novel glycerol dehydrogenase according to the present invention. To the reaction solution are added 0.7 ml of a 50 mM Tris--HCl buffer solution, 0.1 ml of a 0.1 M glycerol and the enzyme solution to a total volume of 0.9 ml. The mixture was preheated at 25° C. for 5 minutes, and 0.1 ml of a 0.1 M potassium ferricyanide was added thereto for the initiation of the reaction. The reaction is terminated by addition of 0.5 ml of ferric sulfate/Dupanol reagent thereto, after which 3.5 ml of distilled water is added thereto to a total volume of 5 ml. Then the mixture was allowed to stand at 25° C. for 30 minutes, followed by measurement of absorbance at 660 nm. A blank test is carried out in the same manner as the above-mentioned one, but adding distilled water instead of the enzyme solution. The activity of glycerol dehydrogenase is expressed with one unit (U) being defined as the enzyme activity which oxidizes 1 μmole of glycerol in 1 minute under the conditions specified above.
Gluconobacter industrious IFO3260 was cultivated in the same manner as in Example 1. The culture solution was centrifuged to harvest the cells which were then subjected to a conventional manner to yield a membrane fraction. […]

In assay [2] the test system is PQQ-dependent soluble glycerol dehydrogenase from Pseudomonas sp. TE3493 (FERM BP-4169). As to the kind of experiment: Km determination of purified glycerol dehydrogenase (ferricyanide activity assay). Format: biochemical. As to conditions: purified enzyme of Example 1. On the procedure: as §1
In a 500 ml Sakaguchi flask there were placed 100 ml of a culture medium which contained 0.5% glycerol, 0.2% NaNO3, 0.2% (NH4)2 SO4, 1% K2 HPO4, 1% KH2 PO4, 0.02% MgSO4.7H2 O and 0.05% yeast extracts, followed by autoclaving at 121° C. for 15 minutes. One loopful of cells of Pseudomonas sp. […]

For orientation: Km means the concentration of substrate that gives half-maximal velocity. With `OCC(O)CO` [glycerol], the Km was 34 mM in assay [1] and 2.45 mM in assay [2].
